How the values were obtained:
Experiment in all cases: radiometric filter-binding kinase assay
MYLK (human) = MYLK (human) (UniProt Q15746)
PRKCA (human) = PRKCA (human) (UniProt P17252)
TTK (human) = TTK (human) (UniProt P33981)
MAPK15 (human) = MAPK15 (human) (UniProt Q8TD08)
MAPKAPK3 (human) = MAPKAPK3 (human) (UniProt Q16644)
MAP3K11 (human) = MAP3K11 (human) (UniProt Q16584)
STK24 (human) = STK24 (human) (UniProt Q9Y6E0); settings: compound 1.0 µM
PDGFRA (human) = PDGFRA (human) (UniProt P16234)
PDPK1 (human) = PDPK1 (human) (UniProt O15530); settings: compound 1.0 µM
MAP2K2 (human) = MAP2K2 (human) (UniProt P36507)
MAP3K5 (human) = MAP3K5 (human) (UniProt Q99683); settings: compound 10.0 µM
MAP3K9 (human) = MAP3K9 (human) (UniProt P80192)
DYRK2 (human) = DYRK2 (human) (UniProt Q92630)
TLK1 (human) = TLK1 (human) (UniProt Q9UKI8)
DDR2 (human) = DDR2 (human) (UniProt Q16832)
ZAP70 (human) = ZAP70 (human) (UniProt P43403)
RPS6KA5 KD1 KD2 (human) = RPS6KA5 KD1 KD2 (human) (UniProt O75582)
TEK (human) = TEK (human) (UniProt Q02763)
MARK4 (human) = MARK4 (human) (UniProt Q96L34)
PIM1 (human) = PIM1 (human) (UniProt P11309)
JAK2 JH1 JH2 (human) = JAK2 JH1 JH2 (human) (UniProt O60674); settings: compound 1.0 µM
PHKG1 (human) = PHKG1 (human) (UniProt Q16816)
BTK (human) = BTK (human) (UniProt Q06187)
PIM2 (human) = PIM2 (human) (UniProt Q9P1W9)
MELK (human) = MELK (human) (UniProt Q14680)
STK33 (human) = STK33 (human) (UniProt Q9BYT3)
NUAK1 (human) = NUAK1 (human) (UniProt O60285)
PRKAA1 or PRKAA2 (rat) = settings: compound 1.0 µM; accession and sequence are those of the human protein
MAPK3 (human) = MAPK3 (human) (UniProt P27361)
EPHB3 (human) = EPHB3 (human) (UniProt P54753); settings: compound 10.0 µM
MAP4K5 (human) = MAP4K5 (human) (UniProt Q9Y4K4)
MINK1 (human) = MINK1 (human) (UniProt Q8N4C8)
AURKB (human) = AURKB (human) (UniProt Q96GD4)

Chain of MAP4K5 (human) (Q9Y4K4 whole entry, looked up): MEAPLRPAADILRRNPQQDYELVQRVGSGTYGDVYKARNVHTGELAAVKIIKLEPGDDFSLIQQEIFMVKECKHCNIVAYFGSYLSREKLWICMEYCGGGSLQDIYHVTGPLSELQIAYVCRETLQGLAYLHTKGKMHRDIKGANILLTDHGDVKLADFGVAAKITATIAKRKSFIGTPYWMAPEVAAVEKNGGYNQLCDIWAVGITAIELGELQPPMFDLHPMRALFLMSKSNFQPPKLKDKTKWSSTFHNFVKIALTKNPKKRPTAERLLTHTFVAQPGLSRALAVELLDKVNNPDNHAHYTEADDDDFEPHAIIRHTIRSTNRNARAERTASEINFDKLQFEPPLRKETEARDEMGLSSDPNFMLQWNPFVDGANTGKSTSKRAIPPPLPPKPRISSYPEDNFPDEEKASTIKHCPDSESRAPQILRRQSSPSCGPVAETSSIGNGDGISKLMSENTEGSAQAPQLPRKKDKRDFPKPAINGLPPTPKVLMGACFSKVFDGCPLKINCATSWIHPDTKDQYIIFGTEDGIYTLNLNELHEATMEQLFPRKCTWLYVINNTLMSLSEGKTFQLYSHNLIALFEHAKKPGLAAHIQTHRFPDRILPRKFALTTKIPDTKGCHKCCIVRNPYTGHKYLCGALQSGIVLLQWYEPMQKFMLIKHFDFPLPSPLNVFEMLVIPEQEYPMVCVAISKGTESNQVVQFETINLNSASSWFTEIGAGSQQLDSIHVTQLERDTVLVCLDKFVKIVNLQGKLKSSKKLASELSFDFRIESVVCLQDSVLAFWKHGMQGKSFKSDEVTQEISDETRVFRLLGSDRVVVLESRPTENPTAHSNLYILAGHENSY
Chain of MINK1 (human) (Q8N4C8 whole entry, looked up): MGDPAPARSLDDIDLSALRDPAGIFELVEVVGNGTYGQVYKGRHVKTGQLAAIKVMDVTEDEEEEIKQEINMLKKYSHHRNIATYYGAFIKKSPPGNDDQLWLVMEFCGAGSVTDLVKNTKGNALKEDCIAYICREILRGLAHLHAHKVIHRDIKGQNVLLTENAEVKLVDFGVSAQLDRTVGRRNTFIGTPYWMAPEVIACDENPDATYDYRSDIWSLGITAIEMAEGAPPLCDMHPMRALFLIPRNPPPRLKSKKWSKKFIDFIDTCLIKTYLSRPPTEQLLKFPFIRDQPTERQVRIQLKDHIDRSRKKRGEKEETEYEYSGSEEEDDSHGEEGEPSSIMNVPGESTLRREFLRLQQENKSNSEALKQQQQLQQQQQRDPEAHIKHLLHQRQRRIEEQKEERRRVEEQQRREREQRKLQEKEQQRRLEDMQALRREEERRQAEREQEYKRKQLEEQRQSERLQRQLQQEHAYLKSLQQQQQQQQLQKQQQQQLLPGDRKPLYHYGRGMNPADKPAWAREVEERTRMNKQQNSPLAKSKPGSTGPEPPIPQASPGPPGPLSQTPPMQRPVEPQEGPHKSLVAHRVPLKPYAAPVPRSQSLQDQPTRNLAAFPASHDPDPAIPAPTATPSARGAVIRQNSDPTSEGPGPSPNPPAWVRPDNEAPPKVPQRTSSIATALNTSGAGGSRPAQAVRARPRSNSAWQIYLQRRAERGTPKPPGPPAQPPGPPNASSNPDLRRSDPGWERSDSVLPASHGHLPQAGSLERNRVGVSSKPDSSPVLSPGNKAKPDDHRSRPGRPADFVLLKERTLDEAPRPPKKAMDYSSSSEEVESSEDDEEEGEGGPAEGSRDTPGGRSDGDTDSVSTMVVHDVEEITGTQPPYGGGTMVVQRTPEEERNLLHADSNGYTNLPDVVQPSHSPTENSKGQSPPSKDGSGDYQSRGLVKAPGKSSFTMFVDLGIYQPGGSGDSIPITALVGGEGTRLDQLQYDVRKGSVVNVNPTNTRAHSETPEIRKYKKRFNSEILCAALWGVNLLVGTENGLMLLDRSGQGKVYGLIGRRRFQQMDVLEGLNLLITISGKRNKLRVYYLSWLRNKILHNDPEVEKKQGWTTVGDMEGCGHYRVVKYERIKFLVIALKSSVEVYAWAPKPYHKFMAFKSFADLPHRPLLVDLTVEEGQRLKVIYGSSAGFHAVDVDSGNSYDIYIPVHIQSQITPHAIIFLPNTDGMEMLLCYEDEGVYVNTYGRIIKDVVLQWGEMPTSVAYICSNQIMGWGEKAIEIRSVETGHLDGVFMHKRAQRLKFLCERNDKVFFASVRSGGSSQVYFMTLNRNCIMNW
Chain of STK33 (human) (Q9BYT3 whole entry, looked up): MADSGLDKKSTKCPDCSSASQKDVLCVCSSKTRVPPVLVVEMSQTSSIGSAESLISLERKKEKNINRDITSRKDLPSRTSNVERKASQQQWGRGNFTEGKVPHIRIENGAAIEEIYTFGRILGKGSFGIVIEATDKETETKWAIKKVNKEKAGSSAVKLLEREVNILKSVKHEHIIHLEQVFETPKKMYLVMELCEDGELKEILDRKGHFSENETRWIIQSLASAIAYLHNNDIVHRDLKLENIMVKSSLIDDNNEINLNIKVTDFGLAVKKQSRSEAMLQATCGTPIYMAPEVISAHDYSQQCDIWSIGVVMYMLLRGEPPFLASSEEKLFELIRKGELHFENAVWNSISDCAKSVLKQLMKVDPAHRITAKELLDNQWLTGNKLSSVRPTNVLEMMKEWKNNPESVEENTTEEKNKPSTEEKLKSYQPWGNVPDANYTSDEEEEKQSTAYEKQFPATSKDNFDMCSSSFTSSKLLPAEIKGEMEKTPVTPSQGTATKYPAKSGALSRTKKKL
Chain of MAP3K11 (human) (Q16584 whole entry, looked up): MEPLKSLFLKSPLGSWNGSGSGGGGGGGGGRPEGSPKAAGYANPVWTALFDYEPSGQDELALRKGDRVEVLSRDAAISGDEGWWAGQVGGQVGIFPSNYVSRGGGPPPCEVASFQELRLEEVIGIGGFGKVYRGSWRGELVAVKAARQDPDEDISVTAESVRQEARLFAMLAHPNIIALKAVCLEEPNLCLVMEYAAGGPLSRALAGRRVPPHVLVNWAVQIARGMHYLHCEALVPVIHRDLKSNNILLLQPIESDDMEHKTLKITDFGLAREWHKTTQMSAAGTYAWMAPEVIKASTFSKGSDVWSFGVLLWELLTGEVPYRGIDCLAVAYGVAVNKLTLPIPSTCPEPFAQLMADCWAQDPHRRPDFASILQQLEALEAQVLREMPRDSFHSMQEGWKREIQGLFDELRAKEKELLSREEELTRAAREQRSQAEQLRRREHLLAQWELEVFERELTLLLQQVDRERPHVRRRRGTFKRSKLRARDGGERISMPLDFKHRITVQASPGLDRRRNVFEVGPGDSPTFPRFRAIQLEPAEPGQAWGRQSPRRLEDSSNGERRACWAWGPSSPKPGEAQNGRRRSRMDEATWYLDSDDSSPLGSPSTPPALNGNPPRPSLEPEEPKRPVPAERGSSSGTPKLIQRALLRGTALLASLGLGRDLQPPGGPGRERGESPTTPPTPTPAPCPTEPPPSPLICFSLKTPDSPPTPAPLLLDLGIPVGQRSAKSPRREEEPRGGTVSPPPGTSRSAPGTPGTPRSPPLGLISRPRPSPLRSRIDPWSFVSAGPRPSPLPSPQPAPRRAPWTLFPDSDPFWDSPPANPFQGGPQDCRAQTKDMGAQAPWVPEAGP
Chain of RPS6KA5 KD1 KD2 (human) (O75582 whole entry, looked up): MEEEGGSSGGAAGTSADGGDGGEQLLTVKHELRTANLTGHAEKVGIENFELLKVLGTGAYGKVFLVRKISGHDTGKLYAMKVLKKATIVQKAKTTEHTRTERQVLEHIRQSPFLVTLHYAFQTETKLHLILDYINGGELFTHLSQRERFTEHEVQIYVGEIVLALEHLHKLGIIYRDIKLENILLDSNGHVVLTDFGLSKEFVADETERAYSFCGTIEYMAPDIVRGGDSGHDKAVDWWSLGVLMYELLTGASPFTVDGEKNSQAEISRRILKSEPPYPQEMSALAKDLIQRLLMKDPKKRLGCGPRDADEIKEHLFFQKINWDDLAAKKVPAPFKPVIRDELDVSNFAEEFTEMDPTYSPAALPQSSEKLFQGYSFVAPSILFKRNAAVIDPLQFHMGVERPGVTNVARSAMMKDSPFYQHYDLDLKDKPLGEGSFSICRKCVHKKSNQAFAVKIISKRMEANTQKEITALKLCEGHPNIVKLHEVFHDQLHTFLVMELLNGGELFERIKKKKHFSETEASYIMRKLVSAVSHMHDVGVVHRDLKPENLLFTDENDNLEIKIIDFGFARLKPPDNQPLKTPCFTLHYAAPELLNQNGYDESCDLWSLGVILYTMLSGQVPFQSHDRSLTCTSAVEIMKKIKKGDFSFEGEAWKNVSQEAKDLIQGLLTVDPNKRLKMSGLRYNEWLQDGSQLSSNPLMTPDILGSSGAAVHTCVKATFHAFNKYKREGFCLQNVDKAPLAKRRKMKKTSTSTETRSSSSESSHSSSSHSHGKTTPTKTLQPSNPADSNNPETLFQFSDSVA
Chain of MELK (human) (Q14680 whole entry, looked up): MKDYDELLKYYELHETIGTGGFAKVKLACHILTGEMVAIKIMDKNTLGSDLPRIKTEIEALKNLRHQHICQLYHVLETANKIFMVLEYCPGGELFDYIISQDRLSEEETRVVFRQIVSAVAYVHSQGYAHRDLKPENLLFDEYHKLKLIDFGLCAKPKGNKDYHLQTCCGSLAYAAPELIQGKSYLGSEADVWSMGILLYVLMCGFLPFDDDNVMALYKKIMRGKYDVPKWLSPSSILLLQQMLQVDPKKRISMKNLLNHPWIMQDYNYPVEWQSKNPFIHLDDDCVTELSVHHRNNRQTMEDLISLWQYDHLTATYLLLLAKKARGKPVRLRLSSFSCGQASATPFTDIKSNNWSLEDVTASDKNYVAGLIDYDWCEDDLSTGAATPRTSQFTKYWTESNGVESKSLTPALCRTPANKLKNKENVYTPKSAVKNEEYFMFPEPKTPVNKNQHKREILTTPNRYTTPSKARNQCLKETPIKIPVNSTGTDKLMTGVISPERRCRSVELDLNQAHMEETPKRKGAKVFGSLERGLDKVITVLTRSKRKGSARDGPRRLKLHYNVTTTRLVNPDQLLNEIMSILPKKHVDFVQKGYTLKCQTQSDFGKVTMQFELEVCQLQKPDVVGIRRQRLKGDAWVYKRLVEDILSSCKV

SMILES: CNc1nc(Nc2ccc(C(=O)N3CCOCC3)cc2OC)ncc1Cl
- residual activity (MYLK (human); compound 1.0 µM): 83%
- residual activity (MYLK (human); compound 10.0 µM): 55%
- residual activity (PRKCA (human); compound 1.0 µM): 66%
- residual activity (PRKCA (human); compound 10.0 µM): 87%
- residual activity (TTK (human); compound 1.0 µM): 71%
- residual activity (TTK (human); compound 10.0 µM): 57%
- residual activity (MAPK15 (human); compound 1.0 µM): 74%
- residual activity (MAPK15 (human); compound 10.0 µM): 82%
- residual activity (MAPKAPK3 (human); compound 1.0 µM): 120%
- residual activity (MAPKAPK3 (human); compound 10.0 µM): 81%
- residual activity (MAP3K11 (human); compound 1.0 µM): 75%
- residual activity (MAP3K11 (human); compound 10.0 µM): 43%
- residual activity (STK24 (human)): 83%
- residual activity (PDGFRA (human); compound 1.0 µM): 79%
- residual activity (PDGFRA (human); compound 10.0 µM): 56%
- residual activity (PDPK1 (human)): 102%
- residual activity (MAP2K2 (human); compound 1.0 µM): 91%
- residual activity (MAP2K2 (human); compound 10.0 µM): 86%
- residual activity (MAP3K5 (human)): 54%
- residual activity (MAP3K9 (human); compound 1.0 µM): 38%
- residual activity (MAP3K9 (human); compound 10.0 µM): 18%
- residual activity (DYRK2 (human); compound 1.0 µM): 44%
- residual activity (DYRK2 (human); compound 10.0 µM): 21%
- residual activity (TLK1 (human); compound 1.0 µM): 61%
- residual activity (TLK1 (human); compound 10.0 µM): 100%
- residual activity (DDR2 (human); compound 1.0 µM): 103%
- residual activity (DDR2 (human); compound 10.0 µM): 90%
- residual activity (ZAP70 (human); compound 1.0 µM): 97%
- residual activity (ZAP70 (human); compound 10.0 µM): 81%
- residual activity (RPS6KA5 KD1 KD2 (human); compound 1.0 µM): 104%
- residual activity (RPS6KA5 KD1 KD2 (human); compound 10.0 µM): 84%
- residual activity (TEK (human); compound 1.0 µM): 79%
- residual activity (TEK (human); compound 10.0 µM): 90%
- residual activity (MARK4 (human); compound 1.0 µM): 82%
- residual activity (MARK4 (human); compound 10.0 µM): 72%
- residual activity (PIM1 (human); compound 1.0 µM): 96%
- residual activity (PIM1 (human); compound 10.0 µM): 99%
- residual activity (JAK2 JH1 JH2 (human)): 83%
- residual activity (PHKG1 (human); compound 1.0 µM): 68%
- residual activity (PHKG1 (human); compound 10.0 µM): 23%
- residual activity (BTK (human); compound 1.0 µM): 83%
- residual activity (BTK (human); compound 10.0 µM): 88%
- residual activity (PIM2 (human); compound 1.0 µM): 94%
- residual activity (PIM2 (human); compound 10.0 µM): 97%
- residual activity (MELK (human); compound 1.0 µM): 88%
- residual activity (MELK (human); compound 10.0 µM): 98%
- residual activity (STK33 (human); compound 1.0 µM): 61%
- residual activity (STK33 (human); compound 10.0 µM): 28%
- residual activity (NUAK1 (human); compound 1.0 µM): 43%
- residual activity (NUAK1 (human); compound 10.0 µM): 20%
- residual activity (PRKAA1 or PRKAA2 (rat)): 89%
- residual activity (MAPK3 (human); compound 1.0 µM): 95%
- residual activity (MAPK3 (human); compound 10.0 µM): 104%
- residual activity (EPHB3 (human)): 101%
- residual activity (MAP4K5 (human); compound 1.0 µM): 83%
- residual activity (MAP4K5 (human); compound 10.0 µM): 82%
- residual activity (MINK1 (human); compound 1.0 µM): 86%
- residual activity (MINK1 (human); compound 10.0 µM): 96%
- residual activity (AURKB (human); compound 1.0 µM): 83%
- residual activity (AURKB (human); compound 10.0 µM): 42%
